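Compound exposure: 48 hours, 5 concentrations, 96-well plates. Abbreviation: GI50, concentration required for 50% inhibition of growth.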 Active and inactive are the calls of the source. Cut-off read from the data, not from the text of the source: active = GI50 up to about 1.1 µM and inactive = higher.
Tests used:
Assay in all cases: NCI anticancer screen, dose series, 48 h
786-0 = tested on: 786-0
CAKI-1 = tested on: CAKI-1
HOP-62 = tested on: HOP-62
HOP-92 = tested on: HOP-92
Hs-578T = tested on: Hs-578T
K562 = tested on: K562
KM12 = tested on: KM12
MCF7 = tested on: MCF7
MDA-MB-435 = tested on: MDA-MB-435
MDA-N = tested on: MDA-N
NCI-H23 = tested on: NCI-H23
SF-539 = tested on: SF-539
SK-MEL-28 = tested on: SK-MEL-28
SNB-19 = tested on: SNB-19
SNB-75 = tested on: SNB-75
T47D = tested on: T47D
TK-10 = tested on: TK-10
U-251 = tested on: U-251
UACC-62 = tested on: UACC-62
SK-MEL-2 = tested on: SK-MEL-2

Measured: GI50

Cc1cc(S(=O)(=O)NC2=Nc3ccccc3C(c3ccccc3)N2)c(S)cc1Cl (stereo not drawn)
inactive: 786-0 8.2 µM | CAKI-1 45.8 µM | HOP-62 > 100 µM | HOP-92 > 100 µM | Hs-578T > 100 µM | K562 87.9 µM | KM12 58.6 µM | MCF7 > 100 µM | MDA-MB-435 31.7 µM | MDA-N 78 µM | NCI-H23 > 100 µM | SF-539 > 100 µM | SK-MEL-28 > 100 µM | SNB-19 34 µM | SNB-75 > 100 µM | T47D 6.56 µM | TK-10 > 100 µM | U-251 37.7 µM | UACC-62 > 100 µM

Cc1nn(CN2CCN(C)CC2)c(=S)n1/N=C/c1ccc(-c2ccc(Cl)cc2Cl)o1
inactive: 786-0 50.1 µM | HOP-62 > 100 µM | HOP-92 > 100 µM | Hs-578T > 100 µM | K562 50.8 µM | KM12 > 100 µM | MCF7 33.4 µM | MDA-MB-435 36.1 µM | MDA-N 50.5 µM | NCI-H23 71.6 µM | SF-539 35.9 µM | SK-MEL-28 > 100 µM | SK-MEL-2 > 100 µM | SNB-19 > 100 µM | T47D 21.2 µM | TK-10 43.9 µM | U-251 32.8 µM | UACC-62 99.5 µM

COc1ccc(C#CC(=O)O)c(OC)c1
inactive: 786-0 > 100 µM | CAKI-1 > 100 µM | HOP-62 > 100 µM | HOP-92 > 100 µM | Hs-578T > 100 µM | K562 > 100 µM | KM12 > 100 µM | MCF7 > 100 µM | MDA-MB-435 > 100 µM | MDA-N > 100 µM | NCI-H23 > 100 µM | SF-539 > 100 µM | SK-MEL-28 > 100 µM | SK-MEL-2 > 100 µM | SNB-19 > 100 µM | T47D > 100 µM | TK-10 > 100 µM | U-251 > 100 µM | UACC-62 > 100 µM

CC(C)(Br)C(Br)CCC(C)(Br)C(Br)CO (stereo not drawn)
inactive: 786-0 > 10 µM | CAKI-1 > 10 µM | HOP-62 > 10 µM | HOP-92 > 10 µM | Hs-578T > 10 µM | K562 > 10 µM | MCF7 > 10 µM | MDA-MB-435 > 10 µM | MDA-N > 10 µM | NCI-H23 > 10 µM | SF-539 > 10 µM | SK-MEL-28 > 10 µM | SNB-19 > 10 µM | SNB-75 > 10 µM | T47D > 10 µM | U-251 > 10 µM

O=C(Nc1ccc(Cl)c(Cl)c1)OCCN1c2ccccc2Sc2ccccc21
inactive: 786-0 > 10 µM | CAKI-1 > 10 µM | HOP-62 > 10 µM | HOP-92 > 10 µM | Hs-578T > 10 µM | K562 > 10 µM | KM12 > 10 µM | MCF7 > 10 µM | MDA-MB-435 > 10 µM | MDA-N > 10 µM | NCI-H23 > 10 µM | SF-539 > 10 µM | SK-MEL-28 > 10 µM | SNB-19 > 10 µM | SNB-75 > 10 µM | T47D > 10 µM | TK-10 > 10 µM | U-251 > 10 µM | UACC-62 > 10 µM

COCCCNc1c2ccccc2nc2ccccc12
inactive: 786-0 3.57 µM | CAKI-1 1.39 µM | HOP-62 3.29 µM | HOP-92 3.58 µM | Hs-578T 2.78 µM | K562 3.23 µM | KM12 4.39 µM | MCF7 2.34 µM | MDA-MB-435 3.85 µM | MDA-N 3.09 µM | NCI-H23 2.92 µM | SF-539 2.26 µM | SK-MEL-28 2.44 µM | SK-MEL-2 2.17 µM | SNB-19 3.09 µM | T47D 2.64 µM | TK-10 5.62 µM | UACC-62 2.18 µM

O=C1C/C(=C\c2ccccc2)C(=O)c2ccccc2N1
inactive: 786-0 19.5 µM | CAKI-1 18.4 µM | HOP-62 27.5 µM | HOP-92 29.9 µM | Hs-578T 60.1 µM | KM12 22.6 µM | MCF7 81.7 µM | MDA-MB-435 23.3 µM | MDA-N 22.9 µM | NCI-H23 24.7 µM | SF-539 20.2 µM | SK-MEL-28 29.5 µM | SK-MEL-2 28.5 µM | SNB-19 14.9 µM | T47D 28.2 µM | TK-10 32.9 µM | UACC-62 19.2 µM

O=c1[nH]nc(Cc2ccccc2)n1/N=C/c1cccnc1
inactive: 786-0 > 100 µM | CAKI-1 12.4 µM | HOP-62 > 100 µM | HOP-92 > 100 µM | Hs-578T > 100 µM | K562 > 100 µM | KM12 27.3 µM | MCF7 > 100 µM | MDA-MB-435 > 100 µM | MDA-N > 100 µM | NCI-H23 > 100 µM | SF-539 > 100 µM | SK-MEL-28 > 100 µM | SNB-19 > 100 µM | SNB-75 > 100 µM | T47D > 100 µM | TK-10 > 100 µM | U-251 > 100 µM

COc1cc(/C=C2/SC(c3ccccc3)N(Cc3ccccc3)C2=O)cc(OC)c1OC (stereo not drawn)
inactive: 786-0 33.2 µM | CAKI-1 > 100 µM | HOP-62 54.3 µM | HOP-92 32.8 µM | Hs-578T 40.6 µM | K562 16.4 µM | KM12 27.2 µM | MCF7 30.3 µM | MDA-MB-435 53.2 µM | MDA-N 29.6 µM | NCI-H23 31.6 µM | SK-MEL-28 47.1 µM | SK-MEL-2 47.8 µM | SNB-19 > 100 µM | T47D 27.2 µM | TK-10 53 µM | U-251 36.7 µM | UACC-62 42.5 µM

CCOP(=O)(OCC)[C@]12C[C@@H](C)C=C[C@H]1COC2=O
inactive: 786-0 > 100 µM | CAKI-1 > 100 µM | HOP-62 > 100 µM | Hs-578T > 100 µM | K562 > 100 µM | KM12 > 100 µM | MCF7 > 100 µM | MDA-MB-435 > 100 µM | MDA-N > 100 µM | NCI-H23 > 100 µM | SF-539 > 100 µM | SK-MEL-28 > 100 µM | SK-MEL-2 > 100 µM | SNB-19 > 100 µM | SNB-75 > 100 µM | T47D > 100 µM | TK-10 > 100 µM | U-251 > 100 µM | UACC-62 > 100 µM

Cn1c2ccccc2c(=O)c2c(O)cc3c(c21)C1OCC(C)(O)C1O3 (stereo not drawn)
inactive: 786-0 39.2 µM | CAKI-1 30.7 µM | HOP-62 23.6 µM | Hs-578T 6.47 µM | K562 53.3 µM | MCF7 51.5 µM | MDA-MB-435 > 100 µM | MDA-N > 100 µM | SF-539 21.6 µM | SK-MEL-28 83.9 µM | SK-MEL-2 28.3 µM | SNB-19 26.6 µM | SNB-75 22.9 µM | T47D 42.7 µM | TK-10 82 µM | U-251 21.4 µM | UACC-62 > 10 µM
